Laboratory results reported in the NIST ThermoML archive (doi:10.1016/j.jct.2007.11.009).

Assay: xn = mol fraction of the nth substance listed
Details: Liquid, Vibrating tube method

CCCCCCCC [octane] + c1ccccc1
mass density [kg/m3]
Details | x1 = 0.1097 | x1 = 0.2036 | x1 = 0.2984 | x1 = 0.4069 | x1 = 0.5027 | x1 = 0.5904 | x1 = 0.6989 | x1 = 0.7964 | x1 = 0.904 | x1 = 1
298.15 K, 100 kPa | 838.3 | 813.5 | 792.3 | 771.6 | 755.7 | 743 | 729.1 | 718.2 | 707.3 | 698.7
298.15 K, 2130 kPa | 839.9 | 815.2 | 794 | 773.3 | 757.4 | 744.8 | 730.9 | 719.9 | 709.1 | 700.4
298.15 K, 4150 kPa | 841.6 | 816.9 | 795.7 | 775.1 | 759.2 | 746.5 | 732.6 | 721.7 | 710.8 | 702.2
298.15 K, 6180 kPa | 843.3 | 818.6 | 797.4 | 776.8 | 760.9 | 748.2 | 734.3 | 723.4 | 712.4 | 703.8
298.15 K, 8210 kPa | 844.9 | 820.2 | 799.1 | 778.5 | 762.5 | 749.9 | 735.9 | 725 | 714.1 | 705.4
298.15 K, 10230 kPa | 846.5 | 821.8 | 800.7 | 780.1 | 764.2 | 751.5 | 737.6 | 726.7 | 715.7 | 707
298.15 K, 11250 kPa | 847.3 | 822.7 | 801.5 | 780.9 | 765 | 752.3 | 738.4 | 727.5 | 716.5 | 707.8
298.15 K, 12260 kPa | 848.1 | 823.5 | 802.4 | 781.7 | 765.8 | 753.2 | 739.2 | 728.3 | 717.3 | 708.6
298.15 K, 14290 kPa | 849.7 | 825.1 | 803.9 | 783.4 | 767.4 | 754.7 | 740.8 | 729.8 | 718.8 | 710.1
298.15 K, 16310 kPa | 851.2 | 826.6 | 805.5 | 784.9 | 769 | 756.3 | 742.4 | 731.4 | 720.4 | 711.7
298.15 K, 18340 kPa | 852.7 | 828.1 | 807 | 786.4 | 770.5 | 757.8 | 743.8 | 732.9 | 721.9 | 713.1
298.15 K, 20370 kPa | 854.2 | 829.6 | 808.5 | 788 | 772 | 759.3 | 745.3 | 734.4 | 723.3 | 714.6
298.15 K, 22390 kPa | 855.7 | 831.1 | 810 | 789.4 | 773.4 | 760.8 | 746.8 | 735.8 | 724.8 | 715.9
298.15 K, 24420 kPa | 857.1 | 832.6 | 811.5 | 790.8 | 774.9 | 762.2 | 748.2 | 737.2 | 726.2 | 717.4
298.15 K, 26450 kPa | 858.5 | 834 | 812.9 | 792.3 | 776.3 | 763.6 | 749.6 | 738.7 | 727.5 | 718.8
298.15 K, 28470 kPa | 859.9 | 835.4 | 814.3 | 793.7 | 777.7 | 765 | 751 | 740 | 728.9 | 720.1
298.15 K, 29490 kPa | 860.6 | 836.1 | 815 | 794.3 | 778.4 | 765.7 | 751.7 | 740.7 | 729.6 | 720.8
298.15 K, 30500 kPa | 861.3 | 836.8 | 815.7 | 795 | 779.1 | 766.4 | 752.4 | 741.4 | 730.2 | 721.4
298.15 K, 32530 kPa | 862.6 | 838.1 | 817 | 796.4 | 780.4 | 767.7 | 753.7 | 742.7 | 731.5 | 722.7
298.15 K, 34550 kPa | 864 | 839.5 | 818.4 | 797.8 | 781.8 | 769.1 | 755 | 744.1 | 732.9 | 724
298.15 K, 36580 kPa | 865.3 | 840.8 | 819.7 | 799.1 | 783.1 | 770.4 | 756.4 | 745.4 | 734.2 | 725.3
298.15 K, 38600 kPa | 866.6 | 842.1 | 821 | 800.4 | 784.4 | 771.7 | 757.6 | 746.5 | 735.4 | 726.5
298.15 K, 39620 kPa | 867.3 | 842.7 | 821.6 | 801 | 785 | 772.3 | 758.2 | 747.1 | 736 | 727.1
308.15 K, 100 kPa | 828.4 | 803.9 | 783 | 762.6 | 747 | 734.5 | 720.8 | 709.9 | 699.3 | 690.8
308.15 K, 2130 kPa | 830.2 | 805.7 | 784.9 | 764.5 | 748.8 | 736.4 | 722.7 | 711.8 | 701.1 | 692.6
308.15 K, 4150 kPa | 832 | 807.5 | 786.7 | 766.3 | 750.7 | 738.2 | 724.5 | 713.7 | 703 | 694.4
308.15 K, 6180 kPa | 833.7 | 809.3 | 788.5 | 768.2 | 752.5 | 740 | 726.3 | 715.5 | 704.8 | 696.2
308.15 K, 8210 kPa | 835.5 | 811.1 | 790.3 | 770 | 754.3 | 741.8 | 728.1 | 717.2 | 706.5 | 698
308.15 K, 10230 kPa | 837.2 | 812.8 | 792 | 771.7 | 756.1 | 743.6 | 729.9 | 719 | 708.3 | 699.7
308.15 K, 11250 kPa | 838 | 813.7 | 792.9 | 772.6 | 756.9 | 744.4 | 730.7 | 719.8 | 709.1 | 700.5
308.15 K, 12260 kPa | 838.8 | 814.5 | 793.7 | 773.4 | 757.8 | 745.3 | 731.6 | 720.7 | 709.9 | 701.3
308.15 K, 14290 kPa | 840.5 | 816.2 | 795.4 | 775.1 | 759.5 | 747 | 733.2 | 722.3 | 711.6 | 703
308.15 K, 16310 kPa | 842.1 | 817.8 | 797 | 776.7 | 761.1 | 748.6 | 734.8 | 723.9 | 713.1 | 704.5
308.15 K, 18340 kPa | 843.7 | 819.5 | 798.7 | 778.4 | 762.7 | 750.2 | 736.5 | 725.5 | 714.8 | 706.1
308.15 K, 20370 kPa | 845.3 | 821 | 800.3 | 780 | 764.3 | 751.8 | 738 | 727.1 | 716.3 | 707.6
308.15 K, 22390 kPa | 846.8 | 822.6 | 801.8 | 781.5 | 765.8 | 753.3 | 739.6 | 728.6 | 717.8 | 709.1
308.15 K, 24420 kPa | 848.3 | 824.1 | 803.4 | 783.1 | 767.4 | 754.8 | 741.1 | 730.1 | 719.3 | 710.6
308.15 K, 26450 kPa | 849.8 | 825.6 | 804.9 | 784.6 | 768.9 | 756.3 | 742.6 | 731.6 | 720.8 | 712
308.15 K, 28470 kPa | 851.3 | 827.1 | 806.4 | 786 | 770.4 | 757.8 | 744 | 733 | 722.2 | 713.4
308.15 K, 29490 kPa | 852 | 827.8 | 807.1 | 786.8 | 771.1 | 758.5 | 744.8 | 733.7 | 722.9 | 714.1
308.15 K, 30500 kPa | 852.7 | 828.6 | 807.8 | 787.5 | 771.8 | 759.2 | 745.5 | 734.4 | 723.6 | 714.8
308.15 K, 32530 kPa | 854.2 | 830 | 809.2 | 788.9 | 773.2 | 760.7 | 746.9 | 735.8 | 725 | 716.2
308.15 K, 34550 kPa | 855.5 | 831.4 | 810.6 | 790.3 | 774.6 | 762 | 748.3 | 737.2 | 726.3 | 717.5
308.15 K, 36580 kPa | 856.9 | 832.8 | 812 | 791.7 | 776 | 763.4 | 749.6 | 738.5 | 727.7 | 718.8
308.15 K, 38600 kPa | 858.3 | 834.2 | 813.4 | 793.1 | 777.3 | 764.7 | 750.9 | 739.9 | 729 | 720.2
308.15 K, 39620 kPa | 859 | 834.9 | 814.1 | 793.7 | 778 | 765.4 | 751.6 | 740.6 | 729.7 | 720.8
